Laboratory results published in ChEMBL document CHEMBL5029155, “Design, Synthesis, and Biological Evaluation of Stable Colchicine-Binding Site Tubulin Inhibitors 6-Aryl-2-benzoyl-pyridines as Potential Anticancer Agents” (J Med Chem, 2021).
In brackets after ≈: the same amount, converted by molar mass. Activity calls are given as the source filed them. The calls are words filed in the database; no cut-off is given here.

How the values were obtained:
[1] = Antitumor activity against human A375/TxR cells xenografted in SCID mouse assessed as tumor growth inhibition at 10 mg/kg, ip administered 3 times/week for 18 days; assay type: functional; set-up: scale not given: the % may be the effect or the level left; details: time 18 day
CYP2B6 = molecular target: T1, CYP2B6 (Homo sapiens, UniProt P20813); test: Inhibition of CYP2B6 in human liver microsomes using bupropion as substrate at 10 uM; assay type: ADME; details: probe bupropion
T1 sequence (P20813 whole entry): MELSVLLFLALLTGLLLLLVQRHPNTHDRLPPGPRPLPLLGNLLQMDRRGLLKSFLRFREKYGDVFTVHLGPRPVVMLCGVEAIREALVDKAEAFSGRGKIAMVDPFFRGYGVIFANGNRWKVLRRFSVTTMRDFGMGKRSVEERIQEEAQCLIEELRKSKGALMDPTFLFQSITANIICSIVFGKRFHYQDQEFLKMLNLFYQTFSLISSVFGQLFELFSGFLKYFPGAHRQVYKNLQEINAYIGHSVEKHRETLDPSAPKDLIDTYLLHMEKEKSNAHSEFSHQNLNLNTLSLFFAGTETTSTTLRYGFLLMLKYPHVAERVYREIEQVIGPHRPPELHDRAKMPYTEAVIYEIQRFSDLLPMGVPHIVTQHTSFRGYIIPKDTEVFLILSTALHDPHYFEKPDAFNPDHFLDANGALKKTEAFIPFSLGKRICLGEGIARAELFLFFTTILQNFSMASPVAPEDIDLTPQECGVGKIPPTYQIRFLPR

[2] = Half life in NSG mouse at 10 mg/kg, ip; assay type: ADME, organism-based; details: in vivo
CYP2C19 = CYP2C19 (Homo sapiens, UniProt P33261); test: Inhibition of CYP2C19 in human liver microsomes using omeprazole as substrate at 10 uM; assay type: ADME; details: probe omeprazole
Chain of CYP2C19 (P33261 whole entry): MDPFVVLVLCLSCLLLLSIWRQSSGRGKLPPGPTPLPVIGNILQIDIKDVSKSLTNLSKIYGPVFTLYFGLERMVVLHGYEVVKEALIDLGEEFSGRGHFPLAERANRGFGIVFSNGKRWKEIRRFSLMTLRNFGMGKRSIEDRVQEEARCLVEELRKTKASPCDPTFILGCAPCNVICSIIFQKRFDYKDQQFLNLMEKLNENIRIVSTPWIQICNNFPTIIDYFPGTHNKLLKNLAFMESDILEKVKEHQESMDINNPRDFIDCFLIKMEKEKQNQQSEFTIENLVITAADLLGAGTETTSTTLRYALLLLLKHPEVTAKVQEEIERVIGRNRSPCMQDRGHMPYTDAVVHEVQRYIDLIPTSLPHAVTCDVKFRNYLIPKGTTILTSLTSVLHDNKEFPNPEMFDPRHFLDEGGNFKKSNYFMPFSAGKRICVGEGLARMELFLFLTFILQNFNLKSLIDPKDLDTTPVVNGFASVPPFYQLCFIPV

MDA-MB-231 = test: Antiproliferative activity against human MDA-MB-231 cells assessed as cell growth inhibition incubated for 72 hrs by MTS assay; assay type: functional, cell-based; details: MDA-MB-231, 72 h
[3] = Cytotoxicity against paclitaxel resistant human MDA-MB-231/TxR cells measured after 72 hrs […]; assay type: functional, cell-based
hERG (KCNH2) = hERG (KCNH2) (Homo sapiens, UniProt Q12809); test: Inhibition of human ERG at 10 uM
Chain of hERG (KCNH2) (Q12809 whole entry): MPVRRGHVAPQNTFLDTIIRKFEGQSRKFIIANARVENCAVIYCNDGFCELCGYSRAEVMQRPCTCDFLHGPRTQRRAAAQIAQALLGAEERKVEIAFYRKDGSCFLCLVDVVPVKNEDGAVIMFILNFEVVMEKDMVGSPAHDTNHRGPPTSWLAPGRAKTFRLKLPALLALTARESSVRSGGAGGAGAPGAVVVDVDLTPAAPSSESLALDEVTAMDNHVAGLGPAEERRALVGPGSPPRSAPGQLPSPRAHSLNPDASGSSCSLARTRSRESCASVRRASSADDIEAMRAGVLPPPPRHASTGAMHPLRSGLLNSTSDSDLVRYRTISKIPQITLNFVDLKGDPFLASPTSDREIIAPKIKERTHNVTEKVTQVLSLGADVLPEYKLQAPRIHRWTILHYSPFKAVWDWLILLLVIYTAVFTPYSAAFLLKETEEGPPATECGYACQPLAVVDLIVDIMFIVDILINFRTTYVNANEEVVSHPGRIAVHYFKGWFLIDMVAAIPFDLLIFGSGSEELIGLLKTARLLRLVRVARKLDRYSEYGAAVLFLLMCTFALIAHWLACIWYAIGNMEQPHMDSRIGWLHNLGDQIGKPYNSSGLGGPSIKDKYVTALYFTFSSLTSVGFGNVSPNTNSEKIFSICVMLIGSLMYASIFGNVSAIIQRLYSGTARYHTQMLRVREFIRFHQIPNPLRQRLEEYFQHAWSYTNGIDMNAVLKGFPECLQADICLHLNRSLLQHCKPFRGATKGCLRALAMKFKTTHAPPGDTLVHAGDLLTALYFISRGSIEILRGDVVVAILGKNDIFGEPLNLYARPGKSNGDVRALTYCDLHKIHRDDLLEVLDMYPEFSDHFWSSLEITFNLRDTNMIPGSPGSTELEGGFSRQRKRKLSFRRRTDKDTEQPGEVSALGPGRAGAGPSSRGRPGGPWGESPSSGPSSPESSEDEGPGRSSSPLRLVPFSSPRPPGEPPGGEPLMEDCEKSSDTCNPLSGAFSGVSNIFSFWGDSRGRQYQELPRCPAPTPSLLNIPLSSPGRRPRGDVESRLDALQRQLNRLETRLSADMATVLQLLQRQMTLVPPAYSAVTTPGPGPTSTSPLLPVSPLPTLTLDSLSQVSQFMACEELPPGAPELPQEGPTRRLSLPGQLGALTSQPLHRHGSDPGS

CYP3A = test: Inhibition of CYP3A in human liver microsomes using midazolam as substrate at 10 uM; assay type: ADME; details: probe midazolam
[4] = Systemic toxicity in human A375/TxR cells xenografted in SCID mouse tumor model assessed as pathological change in heart at 10 to 20 mg/kg, ip by H and E staining based analysis; assay type: organism-based; details: in vivo, dose 10-20 mg/kg
[5] = Aqueous solubility of compound in pH 7.4 PBS buffer; assay type: physicochemical
CYP2C8 = molecular target: T2, CYP2C8 (Homo sapiens, UniProt P10632); test: Inhibition of CYP2C8 in human liver microsomes using amodiaquine as substrate at 10 uM; assay type: ADME; details: probe amodiaquine
T2 sequence (P10632 whole entry): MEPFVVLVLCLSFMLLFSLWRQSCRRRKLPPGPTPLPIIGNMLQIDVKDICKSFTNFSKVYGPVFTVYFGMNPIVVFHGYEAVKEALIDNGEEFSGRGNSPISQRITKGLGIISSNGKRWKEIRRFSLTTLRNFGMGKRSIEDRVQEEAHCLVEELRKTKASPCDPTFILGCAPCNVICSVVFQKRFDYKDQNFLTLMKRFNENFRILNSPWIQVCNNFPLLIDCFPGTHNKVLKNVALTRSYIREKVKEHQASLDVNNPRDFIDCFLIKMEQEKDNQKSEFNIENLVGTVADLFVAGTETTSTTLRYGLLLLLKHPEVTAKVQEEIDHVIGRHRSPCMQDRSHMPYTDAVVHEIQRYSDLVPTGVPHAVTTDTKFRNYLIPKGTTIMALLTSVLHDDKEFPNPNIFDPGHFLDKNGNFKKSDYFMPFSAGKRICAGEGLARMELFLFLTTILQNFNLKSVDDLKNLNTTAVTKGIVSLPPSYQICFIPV

A375/TxR = test: Antimetastatic activity against human A375/TxR cells xenografted in SCID mouse assessed as metastatic in liver at 20 mg/kg, ip; assay type: functional, organism-based
[6] = Systemic toxicity in human A375/TxR cells xenografted in SCID mouse tumor model assessed as pathological change in kidney at 10 to 20 mg/kg, ip by H and E staining based analysis; assay type: organism-based; details: in vivo, dose 10-20 mg/kg
[7] = Antimetastatic activity against human A375/TxR cells xenografted in SCID mouse assessed as metastatic in liver at 10 mg/kg, ip; assay type: functional
[8] = Antitumor activity against human A375/TxR cells xenografted in SCID mouse assessed as reduction in tumor volume at 20 mg/kg, ip administered 3 times/week for 18 days; assay type: functional; set-up: scale not given: the % may be the effect or the level left; details: time 18 day
CYP2D6 = CYP2D6 (Homo sapiens, UniProt P10635); test: Inhibition of CYP2D6 in human liver microsomes using dextromethorphan as substrate at 10 uM; assay type: ADME; details: probe dextromethorphan
Chain of CYP2D6 (P10635 whole entry): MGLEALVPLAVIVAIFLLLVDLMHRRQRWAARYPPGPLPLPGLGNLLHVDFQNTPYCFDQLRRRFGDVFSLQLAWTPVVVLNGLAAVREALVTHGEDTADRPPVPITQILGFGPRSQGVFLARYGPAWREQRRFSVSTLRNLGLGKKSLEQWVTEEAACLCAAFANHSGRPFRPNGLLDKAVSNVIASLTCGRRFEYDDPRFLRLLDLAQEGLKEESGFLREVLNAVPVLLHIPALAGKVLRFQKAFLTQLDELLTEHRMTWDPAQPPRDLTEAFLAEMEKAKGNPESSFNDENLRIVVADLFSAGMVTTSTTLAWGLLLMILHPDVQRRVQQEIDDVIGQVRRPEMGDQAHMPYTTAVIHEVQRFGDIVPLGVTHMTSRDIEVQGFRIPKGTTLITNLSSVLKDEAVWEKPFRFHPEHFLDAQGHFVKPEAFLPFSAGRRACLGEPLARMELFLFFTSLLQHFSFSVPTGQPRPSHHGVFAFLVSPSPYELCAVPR

Salmonella typhimurium = test: Mutagenicity in Salmonella typhimurium TA1537 by Ames test; assay type: toxicity, organism-based; details: salmonella enterica subsp. enterica serovar typhimurium

COc1cc(C(=O)c2nc(-c3ccc(C)c(O)c3)ccc2F)cc(OC)c1OC
Activity [1]: 44.4% | inhibition at 10 µM (CYP2B6): 12% | half-life [2]: 4.39 h | inhibition at 10 µM (CYP2C19): 49% | IC50 (MDA-MB-231): 2.2 nM | IC50 [3]: 2.1 nM | inhibition at 10 µM (hERG (KCNH2)): 5.14% | inhibition at 10 µM (CYP3A): 34.7% | Activity [4]: Non-Toxic | solubility [5]: 0.1 µM (≈ 0.0397 µg/mL) | inhibition at 10 µM (CYP2C8): 92.5% | Activity (A375/TxR): inactive | Activity [6]: Non-Toxic | Activity [7]: 33% | Activity [8]: 72.9% | inhibition at 10 µM (CYP2D6): 11.9% | Activity (Salmonella typhimurium): Non-Toxic
